Patent US8802673B2, “Heterocyclic amine derivatives” (Hoffmann-La Roche Inc, priority 2011, dated 2014)
Counter-ions that a name gives are not always drawn.

Assays:
rat TAAR1 = rat TAAR1 (Rattus norvegicus (Rat), UniProt Q923Y9); test: Radioligand binding assay on rat TAAR1; settings: rat TAAR1 (second value of the cell), HEK-293 membranes; read-out: Ki (μM) mouse/rat
Experimental: (§1) Construction of TAAR Expression Plasmids and Stably Transfected Cell Lines
(§2) For the construction of expression plasmids the coding sequences of human, rat and mouse TAAR 1 were amplified from genomic DNA essentially as described by Lindemann et al.. The Expand High Fidelity PCR System (Roche Diagnostics) was used with 1.5 mM Mg^2+ and purified PCR products were cloned into pCR2.1-TOPO cloning vector (Invitrogen) following the instructions of the manufacturer. PCR products were subcloned into the pIRESneo2 vector (BD Clontech, Palo Alto, Calif.), and expression vectors were sequence verified before introduction in cell lines.
(§3) HEK293 cells (ATCC #CRL-1573) were cultured essentially as described by Lindemann et al. (2005). For the generation of stably transfected cell lines HEK293 cells were transfected with the pIRESneo2 expression plasmids containing the TAAR coding sequences (described above) with Lipofectamine 2000 (Invitrogen) according to the instructions of the manufacturer, and 24 hrs post transfection the culture medium was supplemented with 1 mg/ml G418 (Sigma, Buchs, Switzerland). After a culture period of about 10 d clones were isolated, expanded and tested for responsiveness to trace amines (all compounds purchased from Sigma) with the cAMP Biotrak Enzyme immunoassay (EIA) System (Amersham) following the non-acetylation EIA procedure provided by the manufacturer.
Radioligand Binding Assay on Rat TAAR1
Membrane Preparation and Radioligand Binding
(§4) HEK-293 cells stably expressing rat TAAR1 were maintained at 37° C. and 5% CO2 in DMEM high glucose medium, containing fetal calf serum (10%, heat inactivated for 30 min at 56° C.), penicillin/streptomycin (1%), and 375 μg/ml geneticin (Gibco). Cells were released from culture flasks using trypsin/EDTA, harvested, washed twice with ice-cold PBS (without Ca^2+ and Mg^2+), pelleted at 1,000 rpm for 5 min at 4° C., frozen and stored at −80° C. Frozen pellets were suspended in 20 ml HEPES-NaOH (20 mM, pH 7.4) containing 10 mM EDTA and homogenized with a Polytron (PT 6000, Kinematica) at 14,000 rpm for 20 s. The homogenate was centrifuged at 48,000×g for 30 min at 4° C. Subsequently, the supernatant was removed and discarded, and the pellet resuspended in 20 ml HEPES-NaOH (20 mM, pH 7.4) containing 0.1 mM EDTA using the Polytron (20 s at 14,000 rpm). This procedure was repeated and the final pellet resuspended in HEPES-NaOH containing 0.1 mM EDTA and homogenized using the Polytron. Typically, aliquots of 2 ml membrane portions were stored at −80° C. With each new membrane batch the dissociation constant (Kd) was determined via a saturation curve. […] All compounds were tested at a broad range of concentrations (10 pM to 10 μM) in duplicates. […] The 96 deep well plates were incubated for 1 hr at 4° C. Incubations were terminated by rapid filtration through Unifilter-96 plates (Packard Instrument Company) and glass filters GF/C (Perkin Elmer) presoaked for 1 hr in polyethylenimine (0.3%) and washed 3 times with 1 ml of cold binding buffer. After addition of 45 μl of Microscint 40 (PerkinElmer) the Unifilter-96 plate was sealed and after 1 hr the ratioactivity counted using a TopCount Microplate Scintillation Counter (Packard Instrument Company).

mouse TAAR1 = mouse TAAR1 (Mus musculus (Mouse), UniProt Q923Y8); test: Radioligand binding assay on mouse TAAR1; settings: mouse TAAR1 (first value of the cell), HEK-293 membranes; read-out: Ki (μM) mouse/rat
Chain of mouse TAAR1 (Q923Y8 whole entry): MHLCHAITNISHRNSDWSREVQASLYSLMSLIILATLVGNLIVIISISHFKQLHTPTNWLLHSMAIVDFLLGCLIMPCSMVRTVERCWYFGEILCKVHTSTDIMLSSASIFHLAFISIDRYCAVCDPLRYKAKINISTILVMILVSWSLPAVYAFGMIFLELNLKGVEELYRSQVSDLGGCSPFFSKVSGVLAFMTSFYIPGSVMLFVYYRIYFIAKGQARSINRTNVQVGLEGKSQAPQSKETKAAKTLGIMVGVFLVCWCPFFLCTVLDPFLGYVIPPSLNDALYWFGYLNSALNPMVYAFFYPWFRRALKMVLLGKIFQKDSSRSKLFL
Experimental: as §1, §2, §3
Radioligand Binding Assay on Mouse TAAR1
Membrane Preparation and Radioligand Binding.
as §4, with “expressing mouse” for “expressing rat”

Chain of rat TAAR1 (Q923Y9 whole entry): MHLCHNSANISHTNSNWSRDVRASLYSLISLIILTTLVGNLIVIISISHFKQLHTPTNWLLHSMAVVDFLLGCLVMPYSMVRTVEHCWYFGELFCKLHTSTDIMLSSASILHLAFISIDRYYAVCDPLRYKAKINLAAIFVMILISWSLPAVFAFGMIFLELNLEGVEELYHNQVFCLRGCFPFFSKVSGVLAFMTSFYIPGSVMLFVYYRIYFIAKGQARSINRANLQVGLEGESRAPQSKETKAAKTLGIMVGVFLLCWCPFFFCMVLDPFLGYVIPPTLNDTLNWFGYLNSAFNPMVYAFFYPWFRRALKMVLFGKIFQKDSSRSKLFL

Compound | Ki (rat TAAR1) [µM] | Ki (mouse TAAR1) [µM]
CC(Nc1ccc([C@H]2CNCCO2)cc1)c1ccc(Cl)cc1 (mixture of isomers) [Example 70, [(RS)-1-(4-Chloro-phenyl)-ethyl]-((S)-4-morpholin-2-yl-phenyl)-amine] | 4.07 | 0.523
Cc1cc(C)nc(Nc2ccc(C3CCNC3)cc2)n1 (racemic) [Example 1, (RS)-(4,6-Dimethyl-pyrimidin-2-yl)-(4-pyrrolidin-3-yl-phenyl)-amine; hydrochloride] | 1.51 | 0.074
Clc1cnc(Nc2ccc(C3CNCCO3)cc2)nc1 (racemic) [Example 6, (RS)-(5-Chloro-pyrimidin-2-yl)-(4-morpholin-2-yl-phenyl)-amine] | 0.232 | 0.0133
Cc1cc(C2CNCCO2)ccc1Nc1ncc(Cl)cn1 (racemic) [Example 81, (RS)-(5-Chloro-pyrimidin-2-yl)-(2-methyl-4-morpholin-2-yl-phenyl)-amine] | 0.203 | 0.0162
Cc1cc(C2CNCCO2)ccc1Nc1ncc(Br)cn1 (racemic) [Example 89, (RS)-5-Bromo-N-(2-methyl-4-(morpholin-2-yl)phenyl)pyrimidin-2-amine] | 0.177 | 0.0139
Clc1ccc(Nc2ccc(C3CNCCO3)cn2)nc1 (racemic) [Example 90, (RS)-5-Chloro-N-(5-(morpholin-2-yl)pyridin-2-yl)pyridin-2-amine] | 0.232 | 0.0196
c1nc(Nc2ccc(C3CNCCO3)cn2)ncc1C1CC1 (racemic) [Example 92, (RS)-5-Cyclopropyl-N-(5-(morpholin-2-yl)pyridin-2-yl)pyrimidin-2-amine] | 0.275 | 0.0229
c1cc(Nc2ccc(C3CNCCO3)cc2)[nH]n1 (racemic) [Example 155, (RS)-(4-Morpholin-2-yl-phenyl)-(1H-pyrazol-3-yl)-amine] |  | 0.6
Brc1cnc(Nc2ccc([C@@H]3CNCCO3)cc2)nc1 [Example 94, (5-Bromo-pyrimidin-2-yl)-((R)-4-morpholin-2-yl-phenyl)-amine] | 0.0489 | 
Brc1ccc(Nc2ccc([C@@H]3CNCCO3)cn2)nc1 [Example 108, (R)-5-Bromo-N-(5-(morpholin-2-yl)pyridin-2-yl)pyridin-2-amine] | 0.216 | 
Brc1ccc(Nc2ccc([C@H]3CNCCO3)cn2)nc1 [Example 109, (S)-5-Bromo-N-(5-(morpholin-2-yl)pyridin-2-yl)pyridin-2-amine] | 0.362 | 
Cc1cc([C@@H]2CNCCO2)ccc1Nc1ncc(C2CC2)cn1 [Example 110, (5-Cyclopropyl-pyrimidin-2-yl)-((R)-2-methyl-4-morpholin-2-yl-phenyl)-amine] | 0.0306 | 
Cc1cc([C@H]2CNCCO2)ccc1Nc1ncc(C2CC2)cn1 [Example 111, (5-Cyclopropyl-pyrimidin-2-yl)-((S)-2-methyl-4-morpholin-2-yl-phenyl)-amine] | 0.0322 | 
Fc1cc([C@@H]2CNCCO2)ccc1Nc1ncc(Br)cn1 [Example 126, (5-Bromo-pyrimidin-2-yl)-((R)-2-fluoro-4-morpholin-2-yl-phenyl)-amine] | 0.0096 | 
Fc1cc([C@H]2CNCCO2)ccc1Nc1ncc(Br)cn1 [Example 127, (5-Bromo-pyrimidin-2-yl)-((S)-2-fluoro-4-morpholin-2-yl-phenyl)-amine] | 0.0165 | 

Next, values leading:

Ki (rat TAAR1) [µM] | Ki (mouse TAAR1) [µM] | Compound
0.0785 | 0.122 | FC(F)(F)C(Nc1ccc(CCC2CCCNC2)cc1)c1ccc(Cl)cc1 (racemic) [Example 4, (RS)-[1-(4-Chloro-phenyl)-2,2,2-trifluoro-ethyl]-[(RS)-4-(2-piperidin-3-yl-ethyl)-phenyl]-amine]
0.029 | 0.0011 | Clc1ccc(Nc2ccc(C3CNCCO3)cc2)nc1 (racemic) [Example 5, (RS)-(5-Chloro-pyridin-2-yl)-(4-morpholin-2-yl-phenyl)-amine]
0.0325 | 0.0005 | Clc1ccc(Nc2ccc(C3CNCCO3)cc2)cc1 (racemic) [Example 8, (RS)-(4-Chloro-phenyl)-(4-morpholin-2-yl-phenyl)-amine]
0.0893 | 0.0181 | Clc1ccc(CNc2ccc(C3CNCCO3)cc2)cc1 (racemic) [Example 9, (RS)-(4-Chloro-benzyl)-(4-morpholin-2-yl-phenyl)-amine]
0.045 | 0.0024 | Cc1cc(C2CNCCO2)ccc1Nc1ccc(Br)cn1 (racemic) [Example 76, (RS)-5-Bromo-N-(2-methyl-4-(morpholin-2-yl)phenyl)pyridin-2-amine]
0.0716 | 0.0047 | Cc1cc(C2CNCCO2)ccc1Nc1ccc(Cl)cc1 (racemic) [Example 79, (RS)-(4-Chloro-phenyl)-(2-methyl-4-morpholin-2-yl-phenyl)-amine]
0.0626 | 0.0026 | Cc1cc(C2CNCCO2)ccc1Nc1ccc(Cl)cn1 (racemic) [Example 80, (RS)-(5-Chloro-pyridin-2-yl)-(2-methyl-4-morpholin-2-yl-phenyl)-amine]
0.057 | 0.0015 | Cc1cc(Nc2ccc(C3CNCCO3)cc2C)ncc1Cl (racemic) [Example 84, (RS)-5-Chloro-4-methyl-N-(2-methyl-4-(morpholin-2-yl)phenyl)pyridin-2-amine]
0.0194 | 0.0014 | Cc1cc(Nc2ccc(C3CNCCO3)cc2C)ncc1Br (racemic) [Example 85, (RS)-5-Bromo-4-methyl-N-(2-methyl-4-(morpholin-2-yl)phenyl)pyridin-2-amine]
0.0874 | 0.008 | CCc1cnc(Nc2ccc(C3CNCCO3)cc2C)nc1 (racemic) [Example 88, (RS)-5-Ethyl-N-(2-methyl-4-(morpholin-2-yl)phenyl)pyrimidin-2-amine]
0.0216 | 0.0062 | Fc1cc(C2CNCCO2)ccc1Nc1ncc(Cl)cn1 (racemic) [Example 96, (RS)-5-Chloro-N-(2-fluoro-4-(morpholin-2-yl)phenyl)pyrimidin-2-amine]
0.0185 |  | Fc1cc(C2CNCCO2)ccc1Nc1ccc(Cl)cn1 (racemic) [Example 99, (RS)-5-Chloro-N-(2-fluoro-4-(morpholin-2-yl)phenyl)pyridin-2-amine]
0.003 |  | Fc1cc([C@@H]2CNCCO2)ccc1Nc1ncc(C2CC2)cn1 [Example 118, (5-Cyclopropyl-pyrimidin-2-yl)-((R)-2-fluoro-4-morpholin-2-yl-phenyl)-amine]
0.0051 |  | Fc1cc([C@H]2CNCCO2)ccc1Nc1ncc(C2CC2)cn1 [Example 119, (5-Cyclopropyl-pyrimidin-2-yl)-((S)-2-fluoro-4-morpholin-2-yl-phenyl)-amine]
